Measurements as given in US20230242511A1, “FUSED PYRAZOLE AND IMIDAZOLE BASED COMPOUNDS AND USE THEREOF AS GLI1 INHIBITORS” (GLIXOGEN THERAPEUTICS LTD., priority 2020, published 2023).
Like-named read-outs stand apart in the source and are kept apart here.

Key:
Gli1 = experiment: Gli1-Luciferase Reporter Assay (Shh Light 2 cells); type: cell-based, mouse
Procedure: Cell line: Shh Light 2 cell line which is based on NIH3T3 mouse fibroblast cell line genetically modified to stably express the Firefly Luciferase reporter gene under the transcription control of Gli 1 binding sequence and the Renila Luciferase gene under a control pRL-SV40 promoter was licensed from Johns Hopkins University (JHU).
Cell culture: Cells are cultured in Complete Medium [formulated as DMEM, 10% FBS, 1% sodium pyruvate, 1% L-glutamine, 0.4 mg/ml G418, 0.15 mg/ml Zeocin] until 80% confluence is achieved. Once sufficient confluency is achieved, cells are detached from the 10 cm culture dish using trypsin-EDTA, washed in Growth Medium [formulated as DMEM, 10% FBS, 1% sodium pyruvate, 1% L-glutamine, 1% PenStrep] and resuspended in fresh Growth Medium at a concentration of 4.3*10^5 cells/ml. To a white 96-well plate […] of cells suspension is transferred and incubated in a humified incubator at 37° C. with 5% CO2 overnight until the cells reach confluency the following day.
On the following day, a 13 point 1:1 dilution of a stock 20 mM Gli 1 inhibitor compound in DMSO is performed and […] of each diluted Gli1 inhibitor compound is diluted in […] Assay Medium [formulated as DMEM, 2% FBS, 1% sodium pyruvate, 1% L-glutamine, 1% PenStrep]. The Growth Medium is removed from the cell-plated 96-well plate and […] of the diluted Gli1 inhibitor is transferred to each well and plates are incubated at 37° C. and 5% CO2 for 30 minutes.
Then, the plates are removed from incubator and Purmorphamine (a Smoothened agonist to induce Hedgehog signaling and Gli1 activation in cells) at a final concentration of […] is added to each well and the plates are reinserted to the incubator for 24 hours incubation. The following day, Firefly and Renila Luciferase levels are measured using the Dual-Glo Luciferase system and the ratio between the Firefly and Renila is calculated for normalization of signal. The ratio of the signal in the treated cells is plotted vs. compound concentration and the IC50 value of each compound is calculated by generating a non-linear regression curve using the 4PL function in GraphPad Prism 8 software.
The primary screening assay is based on a NIH3T3 mouse fibroblast cell line genetically modified to stably express the Firefly Luciferase reporter gene under the transcription control of Gli1 binding sequence and the Renila Luciferase gene under a control pRL-SV40 promoter. This assay allows the determination of a compound's IC50 value in inhibiting Gli1 activity.

EAE mouse model [1] = experiment: Efficacy EAE model, PLP139-151/CFA in SJL/L mice; type: in vivo; settings: daily 10 mg/Kg or 50 mg/Kg, until Day 57, vs vehicle
Procedure: (§1) N=12 for all groups except for dexamethasone which had n=5 (FIG. 1B).
Eight-weeks old female SJL/L mice were immunized on Day 1 with an emulsion of PLP139-151/CFA and injected with pertussis toxin to induce disease. At the start of clinical signs (Days 9-10), the animals were administered with compound 6 (Glx-077) at a daily dose of 10 mg/Kg or 50 mg/Kg, or with a vehicle (15% HP-β-CD in water) until completion of trial (Day 57). A graph, summarizing the results of this experiment is represented in FIG. 1A.

EAE mouse model [2] = experiment: Efficacy EAE model, MOG35-55/CFA in C57B16 mice; type: in vivo; settings: daily 10 mg/Kg, until Day 28, vs vehicle
Procedure: as §1
Thirteen-weeks old female C57B16 mice were immunized on Day 1 with an emulsion of MOG35-55/CFA and injected with pertussis toxin to induce disease. At the start of clinical signs (Days 9-10), the animals were daily administered with Glx-077, Glx-088P3, clemastine fumarate (at 10 mg/Kg) or vehicle (15% HP-β-CD in water) until completion of experiment (Day 28). Mice administered with dexamethasone were used as a positive control group. Clinical score of the mice was measured daily. A graph, summarizing the results of this experiment is represented in FIG. 1B.

Pharmacokinetic Study = type: in vivo; settings: for Cmax: in ng/mL (unit assumed)
Procedure: Compounds were formulated in 15% HP-b-CD in water (IV formulation was at pH=5.0 and PO was at pH=3.0). Blood was obtained from facial vein pre-dosing and at 0.083, 0.25, 0.5, 1, 2, 4, 8, 24 hours post dosing for a total of 9 time-points, semi-serial bleeding. For PO dosing, another group of animals (n=3) were terminated at 2 hours post dosing and brains were extracted to analyze brain exposure and calculate brain/plasma ratio. Lower limit of quantification (LLOQ) for brain and plasma samples was 1 ng/ml.

[3] = Mus musculus, Shh Light2, in-vitro, read-out: concentration inhibiting 50% of Gli1 activity
[4] = Mus musculus, Shh Light2, Shh Light 2 cell line, Purmorphamine-induced, 24 hours, read-out: Luciferase cell based IC50
[5] = Shh Light 2 cell line, Purmorphamine-induced, 24 hours, read-out: Luciferase cell based IC50

Cn1c(-c2ccccc2Cl)nc2c1CN(Cc1cnc3ccccc3n1)CC2 [Compound 11]
IC50 (Gli1; [3]): < 17 nM

Cc1c2c(nn1-c1ccccc1Cl)CCC(N1Cc3cccc(C#N)c3C1)C2 (centres unmarked) [Glx-322]
IC50 (Gli1; [4]): 12 nM

Cn1c(-c2ccccc2Cl)nc2c1CN(Cc1nc3cccnc3o1)CC2 [Compound 6]
clinical outcome (FIG. 1A) (EAE mouse model [1]): improvements in clinical outcome | clinical outcome / clinical score (FIG. 1B) (EAE mouse model [2]): improvements in clinical outcome

COc1ccc(C#N)c2c1CN(C1CCc3nn(-c4ccccc4Cl)c(C)c3C1)C2 (centres unmarked) [Glx-341]
IC50 (Gli1; [4]): 16.7 nM

COc1cccc2c1CN(C1CCc3nn(-c4ccccc4Cl)c(C)c3C1)C2 (centres unmarked) [Glx-088P3]
IC50 (Gli1; [5]): 0.18 nM | AUCINF-plasma (Pharmacokinetic Study; IV, 2 mg/Kg): 517 ng·h/mL | T½ (Pharmacokinetic Study; IV, 2 mg/Kg): 1.53 h | % F (Pharmacokinetic Study; PO, 10 mg/Kg): 38% | AUCINF-plasma (Pharmacokinetic Study; PO, 10 mg/Kg): 517 ng·h/mL | T½ (Pharmacokinetic Study; PO, 10 mg/Kg): 1.5 h | Brain levels 2 h post PO administration (Pharmacokinetic Study; PO, 10 mg/Kg): 123 ng/g | Brain/plasma ratio (2 h) (Pharmacokinetic Study; PO, 10 mg/Kg): 208% | Cmax (Pharmacokinetic Study; PO, 10 mg/Kg): 268 | % F (Pharmacokinetic Study; PO, 30 mg/Kg): 65.6% | AUCINF-plasma (Pharmacokinetic Study; PO, 30 mg/Kg): 2674 ng·h/mL | T½ (Pharmacokinetic Study; PO, 30 mg/Kg): 1.69 h | Brain levels 2 h post PO administration (Pharmacokinetic Study; PO, 30 mg/Kg): 1104 ng/g | Brain/plasma ratio (2 h) (Pharmacokinetic Study; PO, 30 mg/Kg): 236% | Cmax (Pharmacokinetic Study; PO, 30 mg/Kg): 1199 | clinical outcome / clinical score (FIG. 1B) (EAE mouse model [2]): improvements in clinical outcome

COc1cccc2c1CC(N1CCc3nn(-c4ccccc4Cl)c(C)c3C1)C2 (centres unmarked) [Glx-369]
IC50 (Gli1; [4]): 73 nM

COc1cccc2c1CN(C1CCc3nn(-c4ccccc4Cl)c(C)c3C1=O)C2 (centres unmarked) [Glx-402]
IC50 (Gli1; [4]): 430 nM

COc1cccc2c1CN(C1CCc3nn(-c4ccccc4Cl)c(C)c3C1)C2 (centres unmarked) [Glx-088RS]
IC50 (Gli1; [5]): 7.1 nM | AUCINF-plasma (Pharmacokinetic Study; PO, 10 mg/Kg): 748 ng·h/mL | T½ (Pharmacokinetic Study; PO, 10 mg/Kg): 1.99 h | Brain levels 2 h post PO administration (Pharmacokinetic Study; PO, 10 mg/Kg): 211 ng/g | Brain/plasma ratio (2 h) (Pharmacokinetic Study; PO, 10 mg/Kg): 129% | Cmax (Pharmacokinetic Study; PO, 10 mg/Kg): 698

Cn1c(-c2ccccc2Cl)nc2c1CN(Cc1ncnc3ccccc13)CC2 [Compound 13]
IC50 (Gli1; [3]): < 17 nM

Cn1c(-c2ccccc2Cl)nc2c1CN(Cc1nc3ccccc3s1)CC2 [Compound 14]
IC50 (Gli1; [3]): < 17 nM

COc1cccc2c1CN(C1CCc3nn(-c4ccccc4Cl)c(C)c3[C@@H]1O)C2 (some centres unmarked) [Glx-344]
IC50 (Gli1; [4]): 385 nM

Cc1c2c(nn1-c1ccccc1Cl)CCC(N1Cc3c(F)ccc(C#N)c3C1)C2 (centres unmarked) [Glx-308]
IC50 (Gli1; [4]): 55 nM

Cc1nc(CN2CCc3nc(-c4ccccc4Cl)n(C)c3C2)nc2ccccc12 [Compound 12]
IC50 (Gli1; Mus musculus, Shh Light2, benzyl series compounds, read-out: in-vitro efficacy IC50): 5.6 nM

COc1cccc2c1CN([C@H]1CCc3nn(-c4ccccc4Cl)c(C)c3[C@@H]1O)C2 [Glx-344A]
IC50 (Gli1; [4]): 172 nM
